Data published in patent US20080031817A1, “Inhibition Of Superoxide Dismutase By Tetrathiomolybdate: Identification Of New Anti-Angiogenic And Antitumor Agents” (priority 2004, published 2008).

Tests used:
bovine SOD1 [1] = biological target: T1, bovine SOD1 (Bos taurus, UniProt P00442); assay: CuZn SOD (SOD1) activity assay, xanthine/xanthine oxidase with WST-1; assay type: biochemical; conditions: for inhibition of SOD1 activity in vitro: in vitro enzyme assay, WST-1
Protocol: SOD1 was assayed with a commercially available kit (Dojindo) based on the xanthine/xanthine oxidase superoxide generation reaction coupled to a water soluble tetrazolium salt, WST-1.
Standard curves (0-13 nM) of bovine SOD were generated using the SOD1 assay described above in the presence of increasing concentrations of ATN-224. Appropriate blanks comprising ATN-224 in the absence of SOD1 enzyme were also generated. The inhibition of SOD1 activity was calculated from these standard curves.

HUVEC = HUVEC proliferation assay (acid phosphatase method); assay type: cell-based, human
Protocol: Alternatively, cells at a density of 6000/well are plated in wells of 48 well microplates on 0.1% gelatin in 200 μl M200/2% FCS, and incubated at 37° C. in a humid atmosphere of 5% CO2 for 16 hrs. Compounds to be tested are diluted in M200 supplemented with 2% FCS and 1 ng/ml FGF-2 and added to the cells. Positive control contain no compound, and negative controls contain no compound or FGF-2. Cells are incubated at 37° C./5% CO2 for 72 hours. Cells are enumerated indirectly using the acid phosphatase method (Connolly, D T et al., 1986, Anal. Biochem 152:136-140). After removal of growth medium, the cells are lysed in buffer containing Triton X-100. The chromogenic substrate for acid phosphatase, p-nitrophenyl phosphate is added at a concentration of 100 mM. After incubation for 75 min. at 37° C., the reaction is stopped with 1N NaOH, and color is measured using a multiwell microplate reader.
Cells at a density of 6000/well were plated in wells of 48 well microplates on 0.1% gelatin in 200 μl M200/2% FCS, and were incubated at 37° C. in a humid atmosphere of 5% CO2 for 16 hrs. Compounds to be tested were diluted in M200 supplemented with 2% FCS and 1 ng/ml FGF-2 and added to the cells. Positive control contained no compound, and negative controls contained no compound or FGF-2. Cells were incubated at 37° C./5% CO2 for 72 hours. Cells were enumerated indirectly using the acid phosphatase method. After removal of growth medium, the cells were lysed in buffer containing the detergent Triton X-100. The chromogenic substrate for acid phosphatase, p-nitrophenyl phosphate was added at a concentration of 100 mM. After incubation for 75 min. at 37° C., the reaction was stopped with 1N NaOH and color was measured using a multiwell microplate reader.
HUVEC proliferation assays were performed as described. Increasing concentrations of ATN-224 was added to cultures in the presence or absence of 100 μM MnTBAP (AG Scientific, San Diego). Cell number was estimated using the acid phosphatase method described above.

bovine SOD1 [2] = biological target: T1, bovine SOD1; assay: Removal of copper from SOD1 (gel filtration, ICP-MS); assay type: biochemical
Protocol: […] The protein was then purified by gel filtration chromatography. The sample was then analyzed for molybdenum content and copper content by ICP-MS.

intracellular CuZnSOD = biological target: T2, intracellular CuZnSOD (Homo sapiens, UniProt P00441); assay: Intracellular CuZnSOD activity in HUVECs; assay type: cell-based
T2 construct: Lysates were assayed for SOD1 activity as described above; endogenous in cells; host or cells: HUVEC
T2 sequence (P00441 whole entry): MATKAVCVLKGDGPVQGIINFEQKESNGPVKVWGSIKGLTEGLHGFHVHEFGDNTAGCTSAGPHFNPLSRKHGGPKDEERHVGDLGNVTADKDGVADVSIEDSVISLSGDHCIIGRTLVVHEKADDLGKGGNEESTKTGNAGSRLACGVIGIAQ
Protocol: HUVECs were plated on 0.1% gelatin at 2-4×10^6 cells in T-25 flasks in M200 medium with 2% FCS. Cells were incubated at 37° C./5% CO2 for 16 hrs. Cells were rinsed with M200/2% FCS and incubated for a further 2 hrs in medium to which varying concentration of ATN-224 and FGF-2 (at 1 ng/ml) were added. At various intervals, medium was removed and the cells lysed in lysis buffer. Lysates were assayed for SOD1 activity as described above. Lysates were also analyzed by Western blot using a SOD1-specific polyclonal antibody (Biodesign, ME). These experiments were repeated in increasing concentrations of serum.

[3] = system: superoxide anions in HUVECs; conditions: 72 hrs, ATN-224 at IC50, 5 μM DHE, vs control HUVECs
Protocol: HUVECs were plated in 6 well cluster plates on 0.1% gelatin at 6000 cells/well in M200/2% FCS. Cells were incubated at 37° C./5% CO2 for 16 hrs. Cells were rinsed, and ATN-224 was added in medium supplemented with 1 ng/ml FGF-2. Cells were incubated at 37 ° for 72 hours, rinsed in PBS, and DHE (Molecular probes) was added (5 μM) to the cells. Cells were then visualized microscopically using a fluorescent lamp and a red filter.

angiogenesis = assay: Matrigel plug assay (hemoglobin); assay type: in vivo; conditions: mice
Protocol: This assay is performed essentially as described by Passaniti et al. (Lab Invest. 67:519-528 (1992). Ice-cold Matrigel® (e.g., 500 μL) (Collaborative Biomedical Products, Inc., Bedford, Mass.) is mixed with heparin (e.g., 50 μg/ml), FGF-2 (e.g., 400 ng/ml) and the compound to be tested. In some assays, bFGF may be substituted with tumor cells as the angiogenic stimulus. The Matrigel® mixture is injected subcutaneously into 4-8 week-old athymic nude mice at sites near the abdominal midline, preferably 3 injections per mouse. The injected Matrigel® forms a palpable solid gel. Injection sites are chosen such that each animal receives a positive control plug (such as FGF-2+heparin), a negative control plug (e.g., buffer+heparin) and a plug that includes the compound being tested for its effect on angiogenesis, e.g., (FGF-2+heparin+compound). […] Hemoglobin (Hb) levels are determined using Drabkin's solution (e.g., obtained from Sigma) according to the manufacturers' instructions. […] The amount of fluorescence in the dispersed plug, determined fluorimetrically, also serves as a measure of angiogenesis in the plug. […]
Matrigel® ([…]) on ice was mixed with heparin (50 mg/ml), FGF-2 (800 ng/ml), VEGF (300 ng/ml) and the test compound. […] Hemoglobin levels in the plugs were determined using Drabkin's solution according to the manufacturers' instructions (Sigma Chemicals). […]

SOD1 = biological target: T3, SOD1 (Homo sapiens, UniProt P00441); assay: SOD1 activity in treated tumors; assay type: in vivo; conditions: SOD1 protein unchanged (Western blot)
T3 construct: from tissue
T3 sequence (P00441 whole entry, species assumed): as the sequence (P00441 whole entry) above

[4] = Zn^2+, Fe^2+, Ca^2+, Mn^2+, Mg^2+; standard binding assays
[5] = system: intracellular copper levels
extracellular SOD = biological target: T4, extracellular SOD (Homo sapiens, UniProt P08294); conditions: alcoholics, compared to untreated alcoholics and healthy control; cited from earlier work
T4 construct: DS administered to alcoholics reduced by 20% extracellular SOD activity
T4 sequence (P08294 19-240): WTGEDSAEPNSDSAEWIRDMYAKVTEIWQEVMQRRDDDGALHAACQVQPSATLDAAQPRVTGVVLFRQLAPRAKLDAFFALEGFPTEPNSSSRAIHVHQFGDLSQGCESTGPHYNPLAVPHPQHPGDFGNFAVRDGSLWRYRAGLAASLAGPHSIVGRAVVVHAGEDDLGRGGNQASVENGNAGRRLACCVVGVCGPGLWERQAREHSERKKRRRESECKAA

T1 sequence (P00442 whole entry): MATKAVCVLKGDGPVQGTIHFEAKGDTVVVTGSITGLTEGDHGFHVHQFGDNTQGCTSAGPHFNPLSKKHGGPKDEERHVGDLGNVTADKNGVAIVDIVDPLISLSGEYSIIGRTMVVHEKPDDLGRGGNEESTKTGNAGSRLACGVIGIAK

With `O=C1CC(c2cccs2)Sc2ccccc2N1` (stereo not drawn) [ATN 722] the “inhibition of SOD1 activity in vitro” value (bovine SOD1 [1]) was “inhibited SOD1 activity”.

In the case of `C[N+](C)(C)CCO.C[N+](C)(C)CCO.[SH-].[SH-].[S]=[Mo]=[S]` [ATN-224, choline tetrathiomolybdate], the IC50 (HUVEC; FGF-2 driven, 72 hours, read-out: IC50, inhibition of HUVEC proliferation) is reported as 1 to 2 µM, the “inhibition of FGF-2 driven proliferation with copper added” value (HUVEC; equimolar concentrations of copper added) is reported as “completely abrogated” and the “inhibition of SOD1 activity in vitro” value (bovine SOD1 [1]) is reported as “inhibited this reaction”. The “inhibition of generation of superoxide ions in the assay” value (bovine SOD1 [1]; xanthine/xanthine oxidase) was “did not act by inhibiting generation of superoxide ions”, the “binding to CuZnSOD (Mo content of purified protein)” value (bovine SOD1 [2]) was “did not bind to CuZnSOD” and the “copper content of CuZnSOD” value (bovine SOD1 [2]) was “appreciable loss of copper”. The “level of CuZnSOD protein (Western blot)” value (intracellular CuZnSOD; HUVEC lysates) was “did not affect the level of CuZnSOD protein”, the “inhibition of intracellular CuZnSOD” value (intracellular CuZnSOD; HUVECs, 3 concentrations, up to 24 hours) was “dose and time dependent inhibition” and the “effect of serum on intracellular CuZnSOD inhibition” value (intracellular CuZnSOD; increasing concentrations of serum) was “unaffected by the presence of serum”. The “DHE fluorescence (superoxide)” value [3] was “strong fluorescence”, the “angiogenesis in Matrigel plugs” value (angiogenesis; compound in plug, 5 days) was “inhibited” and the “SOD1 enzymatic activity in treated tumors” value (SOD1) was “reduced SOD1 enzymatic activity”. For the same molecule, the “binding to other metal cations” value [4] was “does not bind detectably”, the “inhibition of aldehyde dehydrogenase” value (aldehyde dehydrogenase) was “does not inhibit” and the intracellular copper levels [5] was “does not increase intracellular copper levels”. For the same molecule, the IL-8 expression (IL-8 expression) was “down-regulates IL-8 expression”.

In the case of `C[N+](C)(C)CCO.C[N+](C)(C)CCO.[S]=[W](=[S])([S-])[S-]` [ATN-427, choline tetrathiotungstate], the “inhibition of SOD1 activity in vitro” value (bovine SOD1 [1]) is reported as “inhibited SOD1 activity” and the “inhibition of SOD1 activity in vitro” value (bovine SOD1 [1]; listed as choline tetrathiotungstate) is reported as “effective inhibitor of SOD1 activity”.

With `c1csc(CSc2nc3ccccc3s2)c1` [ATN-714] the “inhibition of SOD1 activity in vitro” value (bovine SOD1 [1]) was “inhibited SOD1 activity”.

With `CN(C)C1=NCC(CSC(=N)N)S1` (stereo not drawn) [ATN-719] the “inhibition of SOD1 activity in vitro” value (bovine SOD1 [1]) was “inhibited SOD1 activity”.

In the case of `CCN(CC)C(=S)SSC(=S)N(CC)CC` [DS, Tetraethylthiuram disulfide], the “reduction of extracellular SOD activity” value (extracellular SOD) is given as 20%.

With `O=C(O)c1ccc(/C2=C3\C=CC(=N3)/C(c3ccc(C(=O)O)cc3)=c3/cc/c4[n]3[Mn]([Cl])[n]3c2ccc3/C(c2ccc(C(=O)O)cc2)=C2/C=CC(=N2)\C=4c2ccc(C(=O)O)cc2)cc1` [MnTBAP, reference compound] the “reversal of ATN-224 inhibition of cell proliferation” value (HUVEC; 100 μM MnTBAP with ATN-224) was “abrogate most of the inhibition” and the “reversal of ATN-224 inhibition of angiogenesis” value (angiogenesis; MnTBAP with ATN-224 in plug) was “abrogated most of this inhibition”.
